According to US7442692B2, “Indanyl-piperazine compounds” (Les Laboratoires Servier, priority 2005, dated 2008):
Where a name gives a salt, the structure may show the parent alone.

Legend:
[1] = biological target: T1, serotonin (5-HTT) reuptake site (Rattus norvegicus, UniProt P31652); assay: Affinity for serotonin reuptake sites in the rat ([3H]-citalopram competition); type: binding; details: rat frontal cortex membranes, read-out: pKi r5-HTT (converted)
T1 construct: from tissue; host or cells: rat frontal cortex membranes
Method: The cortices are homogenised using a Polytron in 40 volumes (weight/volume) of cold Tris-HCl (50 mM, pH 7.4) incubation buffer containing 120 mM NaCl and 5 mM KCl and are then centrifuged for a first time. The sediment is resuspended in the same buffer, incubated for 10 minutes at 37° C. and then re-centrifuged. The membranes are washed a further two times and the sediment is then resuspended in an appropriate volume of incubation buffer. […] Non-specific binding is determined with 10 μM fluoxetine. At the end of the incubation period, the samples are filtered through Unifilter GF/B type filters pretreated with PEI (0.5%) and washed several times with the incubation buffer. The radioactivity retained on the filters is counted after addition of scintillation liquid, with the aid of a scintillation counter. […] The results are expressed as pKi=−log Ki.

human NK1 receptors = biological target: T2, human NK1 receptors (Homo sapiens, UniProt P25103); assay: hNK1 binding ([3H]-Substance P competition on IM9 human lymphoblast cells); details: read-out: pKi NK1 (converted)
T2 construct: IM9 human lymphoblast cells endogenously expressing NK1 receptors; endogenous in cells; host or cells: IM9 human lymphoblast cells
Method: IM9 human lymphoblast cells endogenously expressing NK1 receptors are centrifuged and taken up in the incubation buffer containing 50 mM TRIS, 150 mM NaCl, 4 mM CaCl2, protease inhibitors at 1/100^e (Cocktail SIGMA P8340) and 0.2% BSA. The volume of incubation buffer is determined so as to obtain a concentration of 5×10^6 cells/ml. […] Non-specific binding is determined in the presence of 1 μM GR 205171.
At the end of the incubation period, the samples ate filtered through Unifilter GF/B type filters pretreated with PEI (0.1%) and washed several times with the filtration buffer ([…], 150 mM NaCl, 4 mM CaCl2). The radioactivity retained on the filters is measured by counting after addition of scintillation liquid to the filters. The counts are […] analysed by non-linear regression, allowing the isotherms to be plotted and the IC50 values to be determined. […] The results are expressed as pKi (−log Ki).

T1 sequence (P31652 whole entry): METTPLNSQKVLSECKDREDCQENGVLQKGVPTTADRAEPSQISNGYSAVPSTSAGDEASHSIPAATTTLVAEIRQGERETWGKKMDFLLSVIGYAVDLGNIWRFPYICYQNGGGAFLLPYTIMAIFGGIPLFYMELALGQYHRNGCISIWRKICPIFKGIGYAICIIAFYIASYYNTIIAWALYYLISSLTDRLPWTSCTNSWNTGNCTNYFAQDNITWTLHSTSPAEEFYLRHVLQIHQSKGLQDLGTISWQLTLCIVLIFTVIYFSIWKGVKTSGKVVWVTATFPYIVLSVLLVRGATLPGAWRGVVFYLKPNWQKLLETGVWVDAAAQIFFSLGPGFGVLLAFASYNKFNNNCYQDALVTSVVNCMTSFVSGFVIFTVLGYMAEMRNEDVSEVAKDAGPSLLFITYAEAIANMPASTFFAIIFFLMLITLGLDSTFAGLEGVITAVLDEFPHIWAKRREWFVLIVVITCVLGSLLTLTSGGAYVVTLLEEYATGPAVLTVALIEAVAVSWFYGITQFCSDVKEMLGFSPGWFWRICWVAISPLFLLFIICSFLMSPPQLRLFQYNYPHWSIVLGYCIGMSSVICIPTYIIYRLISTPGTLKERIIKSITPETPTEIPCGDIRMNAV
T2 sequence (P25103 whole entry): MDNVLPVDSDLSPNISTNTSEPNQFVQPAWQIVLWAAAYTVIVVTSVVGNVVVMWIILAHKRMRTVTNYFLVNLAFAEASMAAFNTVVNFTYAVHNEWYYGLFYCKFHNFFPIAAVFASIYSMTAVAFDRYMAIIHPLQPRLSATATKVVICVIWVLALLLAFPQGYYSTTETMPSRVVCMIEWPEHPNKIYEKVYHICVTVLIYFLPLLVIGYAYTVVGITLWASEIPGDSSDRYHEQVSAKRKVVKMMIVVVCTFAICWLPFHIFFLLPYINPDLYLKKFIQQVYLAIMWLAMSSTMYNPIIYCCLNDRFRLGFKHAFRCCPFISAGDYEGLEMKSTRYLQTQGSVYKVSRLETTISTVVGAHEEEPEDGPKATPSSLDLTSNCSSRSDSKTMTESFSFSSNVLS

Compound	Ki [1] [nM]	Ki (human NK1 receptors) [nM]
Fc1cc(F)cc(COCC2(N3CCNCC3)CCc3ccccc32)c1 (racemic) [Example 70, (1RS)-1-[1-(3,5Difluorobenzyloxymethyl)indan-1-yl]piperazine dihydrochloride]	3.24	
O=C(NCc1cc(C(F)(F)F)cc(C(F)(F)F)c1)C1(N2CCNCC2)Cc2ccccc2C1 [Example 5, N-[3,5-Bis(trifluoromethyl)benzyl]-2-(1-piperazinyl)-2-indan-carboxamide dihydrochloride]		398
CN(Cc1cc(F)cc(Cl)c1)C(=O)C1(N2CCNCC2)Cc2ccccc2C1 [Example 135, N-(3-Chloro-5-fluorobenzyl)-N-methyl-2-(1-piperazinyl)-2-indan-carboxamide dihydrochloride]	43.7	
Brc1cc(Br)cc(COCC2(N3CCNCC3)CCc3ccccc32)c1 (racemic) [Example 1, 1-[(1RS)-1-(3,5Dibromobenzyloxymethyl)indan-1-yl]piperazine dihydrochloride]	245	3.39
CN(Cc1cc(F)cc(F)c1)C(=O)C1(N2CCNCC2)CCc2ccccc21 (racemic) [Example 68, (1RS)-N-(3,5Difluorobenzyl)-N-methyl-1-(1-piperazinyl)-1-indan-carboxamide dihydrochloride]	33.9	
CN(Cc1cc(Cl)cc(Cl)c1)C(=O)C1(N2CCNCC2)CCc2ccccc21 (racemic) [Example 85, (1RS)-N-(3,5-Dichlorobenzyl)-N-methyl-1-(1-piperazinyl)-1-indan-carboxamide dihydrochloride]	93.3	
CN(Cc1ccccc1)C(=O)C1(N2CCNCC2)CCc2ccccc21 (racemic) [Example 11, (1RS)-N-Benzyl-N-methyl-1-(1-piperazinyl)-1-indancarboxamide dihydrochloride]		490
Cc1cc(C)cc(COCC2(N3CCNCC3)CCc3ccccc32)c1 (racemic) [Example 2, 1-[(1RS)-1-(3,5-Dimethylbenzyloxymethyl)indan-1-yl]piperazine dihydrochloride]	53.7	18.2
Cc1cc(C)cc(COCC2(N3CCNCC3)Cc3ccccc3C2)c1 [Example 3, 1-[2-(3,5-Dimethylbenzyloxymethyl)indan-2-yl]piperazine dihydrochloride]	63.1	162
CN(Cc1cc(Cl)cc(Cl)c1)CC1(N2CCNCC2)Cc2ccccc2C1 [Example 79, N-(3,5-Dichlorobenzyl)N-methyl-[2-(1-piperazinyl)indan-2-yl]-methanamine trihydrochloride]		513
CN(Cc1cc(F)cc(C(F)(F)F)c1)C(=O)C1(N2CCNCC2)CCc2ccccc21 (racemic) [Example 69, (1RS)-N-[3-Fluoro-5(trifluoromethyl)benzyl]-N-methyl-1-(1-piperazinyl)-1-indancarboxamide dihydrochloride]	151	
